# Test system: IL-2 production by Jurkat cells
# Experiment: Inhibition of IL-2 production by Jurkat cells after PMA/PHA co-stimulation (ELISA)
# Assay type: cell-based, human
# Conditions: PMA and PHA co-stimulation; for IL-2% Inhibition: 24 hours
# Description: Compounds of the invention were tested for their activity as inhibitors of T Cell stimulation by measuring the effect on IL-2 production by Jurkat cells following PMA (phorbol 12-myristate 13-acetate) and PHA (phytohemagglutinin) co-stimulation. All new compounds were tested at 0.1 uM, 1 uM and 10 uM. Cyclosporine A (control) was also tested at 0.1 uM, 1 uM and 10 uM. All compounds to be tested were dissolved in dimethyl sulfoxide. Cytotoxicity was evaluated with parallel Alamar Blue plates. Jurkat cells were seeded at 2×10^5 cells per well in 200 μL growth media in a clear, U-bottom 96-well plate. Cells were cultured in RPMI 1640 medium, 10% fetal bovine serum, and L-Glutamine with incubation at 37° C. with 5% carbon dioxide. After 1 hour of incubation the cells were stimulated with PMA (12.5 uL of a 1 ng/mL solution in 1% DMSO/media) and PHA (12.5 uL of a 5 ug/mL solution in PBS). After 24 hours the sample supernatants were harvested and stored at −80° C. A sample of the supernatant (25 uL) was diluted with RPMI (25 uL) and the concentration of human IL-2 was determined by ELISA (Pierce, EH2IL25).
SMILES,IC50,IL-2% Inhibition (1 uM),IL-2% Inhibition (10 uM)
"C=CC1CC(C)C(C2C(=O)NC(CC)C(=O)N(C)C(SCCN(C)C)C(=O)N(C)C(CC(C)(C)O)C(=O)NC(C(C)C)C(=O)N(C)C(CC(C)C)C(=O)NC(C)C(=O)NC(C)C(=O)N(C)C(CC(C)C)C(=O)N(C)C(CC(C)C)C(=O)N(C)C(C(C)C)C(=O)N2C)O1 [Example G, 1-[(2S)—N-methyl-2-[tetrahydro-5-ethenyl-3-methyl-2-furanyl]glycine]-3-[2R-[[2-(dimethylamino)ethyl]thio]-N-methylglycine]-4-(4-hydroxy-N-methyl-L-leucine)-cyclosporin A]",> 10 µM,–,–
"C=CC1CC(C)C(C2C(=O)NC(CC)C(=O)N(C)CC(=O)N(C)C(CC(C)(C)O)C(=O)NC(C(C)C)C(=O)N(C)C(CC(C)C)C(=O)NC(C)C(=O)NC(C)C(=O)N(C)C(CC(C)C)C(=O)N(C)C(CC(C)C)C(=O)N(C)C(C(C)C)C(=O)N2C)O1 [Example D, 1-[(2S)—N-methyl-2-[tetrahydro-5-ethenyl-3-methyl-2-furanyl]glycine]-4-(4-hydroxy-N-methyl-L-leucine)-cyclosporin A]",–,8%,–
"CCC1CC(C)C([C@H]2C(=O)N[C@@H](CC)C(=O)N(C)CC(=O)N(C)[C@@H](CC(C)(C)O)C(=O)N[C@@H](C(C)C)C(=O)N(C)[C@@H](CC(C)C)C(=O)N[C@@H](C)C(=O)N[C@H](C)C(=O)N(C)[C@@H](CC(C)C)C(=O)N(C)[C@@H](CC(C)C)C(=O)N(C)[C@@H](C(C)C)C(=O)N2C)O1 (stereo partly drawn) [Example C, 1-[(2S)—N-Methyl-2-[tetrahydro-5-ethyl-3-methyl-2-furanyl]glycine]-4-(4-hydroxy-N-methyl-L-leucine)-cyclosporin A]",–,16%,–
"CCC1CC(C)C([C@H]2C(=O)N[C@@H](CC)C(=O)N(C)[C@H](SCCN(C)C)C(=O)N(C)[C@@H](CC(C)(C)O)C(=O)N[C@@H](C(C)C)C(=O)N(C)[C@@H](CC(C)C)C(=O)N[C@@H](C)C(=O)N[C@H](C)C(=O)N(C)[C@@H](CC(C)C)C(=O)N(C)[C@@H](CC(C)C)C(=O)N(C)[C@@H](C(C)C)C(=O)N2C)O1 (stereo partly drawn) [Example F, 1-[(2S)—N-methyl-2-[tetrahydro-5-ethyl-3-methyl-2-furanyl]glycine]-3-[2R-[[2-(dimethylamino)ethyl]thio]-N-methylglycine]-4-(4-hydroxy-N-methyl-L-leucine)-cyclosporin A]",–,2%,5%
"CCC1CC(C)C([C@H]2C(=O)N[C@@H](CC)C(=O)N(C)CC(=O)N(C)[C@@H](CC(C)C)C(=O)N[C@@H](C(C)C)C(=O)N(C)[C@@H](CC(C)C)C(=O)N[C@@H](C)C(=O)N[C@H](C)C(=O)N(C)[C@@H](CC(C)C)C(=O)N(C)[C@@H](CC(C)C)C(=O)N(C)[C@@H](C(C)C)C(=O)N2C)O1 (stereo partly drawn) [Example A, 1-[(2S)—N-Methyl-2-[tetrahydro-5-ethyl-3-methyl-2-furanyl]glycine]-cyclosporin A]",–,84%,–

# Reference: patent publication US10738084B2, “Macrocycles” (Sentry Therapeutics Limited, priority 2015, dated 2020)
